In brackets after ≈: the same amount, converted by molar mass. Non-standard residues stand in square brackets, D forms with d. Residues, ends and D or L forms follow the SMILES beside them. No end group written: not given here.
Assays:
[1] = test system: multidrug-resistant Pseudomonas aeruginosa; conditions: 4 h
Experimental: First, each of Pseudomonas aeruginosa (ATCC 27853) and Staphylococcus aureus (ATCC 29213) was cultured in 3% (w/v) TSB (Tryptic Soy Broth) liquid medium at 37° C. and 200 rpm for 4 hours, and then further cultured under the same conditions for 3 hours to a concentration of 5×10^6 CFU/ml. Strain solutions were prepared by diluting each of the further cultured strains with SP (sodium phosphate; 10 mM sodium phosphate, 1% TSB) buffer to a final concentration of 2×10^5 CFU/ml.
Then, each peptide at varying concentrations (0 μg/ml to 300 μg/ml) was dispensed into each well of a 96-well microplate, and 100 μl (1×10^5 CFU/ml) of each of the prepared strain solutions was added thereto, mixed therewith, and allowed to react with the peptide in an incubator at 37° C. for 1 hour.
In addition, 30 g/L of TS (tryptic soy) and 15 g/L of agar were dissolved in distilled water and sterilized, and then 25 ml of the solution was poured onto a 100 mm round plate and solidified at room temperature for one day or more, thereby preparing a TS agar plate. 10 μl of each reaction solution of the peptide and the strain was plated on the TS agar plate at a constant size, and incubated in an incubator at 37° C. for 18 hours, and then colony formation on the plate was checked.
Specifically, each type of bacteria was cultured in 3% (w/v) TSB (Tryptic Soy Broth) liquid medium at 37° C. and 200 rpm for 4 hours, and then further cultured under the same conditions for 3 hours to a concentration of 5×10^6 CFU/ml. Strain solutions were prepared by diluting each of the […] of 2×10^5 CFU/ml.
Then, the KU-5878 peptide at varying concentrations (0 μg/ml to 300 μg/ml) was dispensed into each well of a 96-well microplate, and 100 μl (1×10^5 CFU/ml) of each of the prepared strain solutions was added thereto, mixed therewith, and allowed to react with the peptide in an incubator at 37° C. for 1 hour.
In addition, 10 μl of each reaction solution of the peptide and the strain was plated on the TS agar plate at a constant size, and incubated in an incubator at 37° C. for 18 hours, and then colony formation on the plate was checked.
Meanwhile, the multidrug-resistant Pseudomonas aeruginosa, multidrug-resistant Acinetobacter and multidrug-resistant Klebsiella in Table 2 below were bacteria isolated from patients at Korea University Anam Hospital. […] Then, these bacteria were used in the experiment.

CRPA = assay: MBC, evaluation of antibacterial activities of KU-5878 variants; type: cell-based; conditions: Tables 11-15, no unit printed
[2] = test system: methicillin-resistant Staphylococcus aureus (ATCC 33591); conditions: for MBC value (μg/ml) against methicillin-resistant Staphylococcus aureus: ATCC 33591, 4 h; for MBC MRSA: Tables 11-15, no unit printed
[3] = test system: Pseudomonas aeruginosa (ATCC 27853); type: cell-based; conditions: for MBC Pseudomonas aeruginosa: Tables 11-15, no unit printed
Outline: (§1)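 Bacteria grown in 3% TSB at 37° C, diluted in 10 mM sodium phosphate/1% TSB to 1×10^5 CFU/ml in wells, exposed to peptides (0–300 μg/ml) for 1 h at 37° C. Mixtures plated on TS agar for 18 h at 37° C; MBC is the lowest concentration giving no colonies.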

[4] = test system: Staphylococcus aureus (ATCC 29213); type: cell-based; conditions: for MBC Staphylococcus aureus: Tables 11-15, no unit printed
Outline: as §1

mouse red blood cells = type: cell-based
Experimental: Red blood cells were diluted with PBS, centrifuged 3 times at 900 g for 10 minutes, and washed. 100 μl of the diluted red blood cell solution (10% v/v PBS) was dispensed into each well of a 96-well microplate, and KU-5878, KU-5878-K4, KU-5878-K4-D, melittin, magainin 2 or daptomycin was added to each well which was then filled with PBS to 200 μl, followed by reaction by incubation at 37° C. for 1 hour. Then, the supernatant of the reaction solution was separated, and the absorbance at a wavelength of 550 nm was measured using a spectrophotometer. As control, PBS and 0.1% Triton X-100 (Triton X-100) solution were used.
Based on the results of measurement of the absorbance, the degree of red blood cell destruction was calculated according to Equation 1 below, and the results of the calculation are shown in FIG. 6. The % intact RBC=100(%)−[(absorbance of peptide-treated red blood cell solution−absorbance of PBS-treated red blood cell solution)/(absorbance of Triton X-100-treated red blood cell solution−absorbance of PBS-treated red blood cell solution)×100(%)] [Equation 1]

Compound | MBC value (μg/ml) against multidrug-resistant Pseudomonas aeruginosa [1] [µg/mL] | MBC CRPA (CRPA) [µg/mL] | MBC value (μg/ml) against methicillin-resistant Staphylococcus aureus [2] [µg/mL] | MBC MRSA [2] [µg/mL] | MBC value (μg/ml) against Pseudomonas aeruginosa ([3]; ATCC 27853, 1 h) [µg/mL] | MBC Pseudomonas aeruginosa [3] [µg/mL] | MBC value (μg/ml) against Staphylococcus aureus ([4]; ATCC 29213, 1 h) [µg/mL] | MBC Staphylococcus aureus [4] [µg/mL] | hemolysis of red blood cells (mouse red blood cells) | MBC (μg/ml) value against Pseudomonas aeruginosa ([3]; ATCC 27853, 1 h) [µg/mL] | MBC (μg/ml) value against Staphylococcus aureus ([4]; ATCC 29213, 1 h) [µg/mL]
KTMMKSGGTFGTFMAIGMGIR [KU-5878-Q62K] | 90 | 90 | 85 | 90 | 90 | 90 | 80 | 80 | – | – | –
KTMMQSGGTFGKFMAIGMGIR [KU-5878-T69K] | 150 | 150 | 150 | 150 | 140 | 140 | 130 | 130 | – | – | –
ATMMQSGGTFGTFMAIGMGIR [KU-5878-K58A] | >300 | > 300 | >300 | > 300 | >300 | > 300 | >300 | > 300 | – | – | –
KRMMQSGGTFGTFMAIGMGIR [KU-5878-T59R] | 35 | 30 | 30 | 30 | 30 | 30 | 25 | 25 | – | – | –
KTMMQSGGTFGTFMAIGMGIA [KU-5878-R78A] | >300 | > 300 | >300 | > 300 | >300 | > 300 | >300 | > 300 | – | – | –
KKMMKKGGTFGTFMAIGMGIR [KU-5878-K3] | 4 | 4 | 5 | 5 | 4 | 4 | 4 | 4 | – | – | –
KKMMQSGGTFGTFMAIGMGIR [KU-5878-T59K] | 45 | 50 | 45 | 50 | 50 | 50 | 40 | 40 | – | – | –
CC[C@H](C)[C@H](NC(=O)CNC(=O)[C@H](CCSC)NC(=O)CNC(=O)[C@@H](NC(=O)[C@H](C)NC(=O)[C@H](CCSC)NC(=O)[C@H](Cc1ccccc1)NC(=O)[C@@H](NC(=O)CNC(=O)[C@H](Cc1ccccc1)NC(=O)[C@@H](CCCCN)NC(=O)CNC(=O)CNC(=O)[C@@H](CCCCN)NC(=O)[C@@H](CCCCN)NC(=O)[C@H](CCSC)NC(=O)[C@H](CCSC)NC(=O)[C@@H](CCCCN)NC(=O)[C@@H](N)CCCCN)[C@@H](C)O)[C@@H](C)CC)C(=O)N[C@@H](CCCNC(=N)N)C(=O)O [KU-5878-K4-D] (H-K[dK]MM[dK][dK]GG[dK]FGTFMAIGMGIR-OH) | – | – | – | – | – | – | – | – | little hemolysis of red blood cells | 3 (≈ 1.29 µM) | 3 (≈ 1.29 µM)
KTMMQKGGTFGTFMAIGMGIR [KU-5878-S63K] | 60 | 50 | 60 | 50 | 60 | 60 | 50 | 50 | – | – | –
RTMMQSGGTFGTFMAIGMGIR [KU-5878-K58R] | 120 | 120 | 130 | 120 | 120 | 120 | 120 | 120 | – | – | –
KTMMQSGGTFGTFMAIGMGIK [KU-5878-R78K] | >300 | > 300 | >300 | > 300 | >300 | > 300 | >300 | > 300 | – | – | –
KTMMQSGGKFGTFMAIGMGIR [KU-5878-T66K] | 80 | 70 | 70 | 80 | 80 | 80 | 60 | 60 | – | – | –
KKMMKSGGTFGTFMAIGMGIR [KU-5878-K2] | 8 | 6 | 8 | 8 | 8 | 8 | 8 | 8 | – | – | –

— patent publication US12053506B2, “Romo1-derived antimicrobial peptides and variants thereof” (priority 2019, dated 2024)
